Results: patent US20260035364A1, “BICYCLIC TETRAHYDROTHIAZEPINE DERIVATIVES” (Hoffmann-La Roche Inc., priority 2022, published 2026)

Legend:
DGKalpha = DGKalpha (Homo sapiens, UniProt P23743); assay: In vitro DGK inhibition assay (ADP-Glo, liposomes), DGKalpha; format: biochemical; set-up: hDGKalpha(1-735)-N-His; His (N); made in house; host or cells: Sf21 insect cells (baculovirus); settings: 4 nM DGK α, 25 μM ATP, 125 uM DLG in liposomes, 1 hour reaction
Method: (§1) DGK α and ζ kinases use ATP to phosphorylate the substrate 1,2-dilauroyl-sn-glycerol (DLG, incorporated in the liposomes). ATP is converted to ADP as a result of this enzymatic reaction. After the kinase reaction, an ATP-depletion reagent is added to terminate the kinase reaction and deplete any remaining ATP, leaving only ADP. Second, a detection reagent is added to simultaneously convert ADP to ATP and allow the newly synthesized ATP to be converted to light using a coupled luciferase/luciferin reaction.
Full length DGKA and Z were expressed in Sf21 insect cells by infecting the cells with the baculovirus stock at MOI of 2. Purification of both enzymes was performed as previously described by Takahashi et al., PeerJ, 2018 (Takahashi, D.; Sakane, F. Expression and purification of human diacylglycerol kinase alpha from baculovirus-infected insect cells for structural studies. PeerJ 2018, 6, No. e5449).
(§2) A concentrated liposome solution was prepared in assay buffer without DTT and BSA: 2 mM of DLG in 21 mM of total liposome (2 mM DLG/8 mM PS/11 mM PC). The reaction mixtures contain the assay buffer with a final DLG concentration of 125 uM ATP concentrations of 25 μM (for DGKA assay) or 50 μM (for DGKZ assay). The reactions were started by addition of DGK a and (kinases at 4 nM and 2 nM final concentrations, respectively. After 1 hour reaction, the amount of ADP formed was detected with the ADP-Glo kinase assay (Promega) according to the manufacturer instructions. Compounds were added in 11-points dose response, starting at […], 1:3 dilutions, with a final DMSO concentration of 2%. The multidrop combi was used as a liquid handler and luminescence was read with 0.5 s by the envision reader (PE).

DGKzeta = DGKzeta (Homo sapiens, UniProt Q13574); assay: In vitro DGK inhibition assay (ADP-Glo, liposomes), DGKzeta; format: biochemical; set-up: hDGKzeta(1-928)-N-His; His (N); made in house; host or cells: Sf21 insect cells (baculovirus); settings: 2 nM DGK ζ, 50 μM ATP, 125 uM DLG in liposomes, 1 hour reaction
Chain of DGKzeta (Q13574 whole entry): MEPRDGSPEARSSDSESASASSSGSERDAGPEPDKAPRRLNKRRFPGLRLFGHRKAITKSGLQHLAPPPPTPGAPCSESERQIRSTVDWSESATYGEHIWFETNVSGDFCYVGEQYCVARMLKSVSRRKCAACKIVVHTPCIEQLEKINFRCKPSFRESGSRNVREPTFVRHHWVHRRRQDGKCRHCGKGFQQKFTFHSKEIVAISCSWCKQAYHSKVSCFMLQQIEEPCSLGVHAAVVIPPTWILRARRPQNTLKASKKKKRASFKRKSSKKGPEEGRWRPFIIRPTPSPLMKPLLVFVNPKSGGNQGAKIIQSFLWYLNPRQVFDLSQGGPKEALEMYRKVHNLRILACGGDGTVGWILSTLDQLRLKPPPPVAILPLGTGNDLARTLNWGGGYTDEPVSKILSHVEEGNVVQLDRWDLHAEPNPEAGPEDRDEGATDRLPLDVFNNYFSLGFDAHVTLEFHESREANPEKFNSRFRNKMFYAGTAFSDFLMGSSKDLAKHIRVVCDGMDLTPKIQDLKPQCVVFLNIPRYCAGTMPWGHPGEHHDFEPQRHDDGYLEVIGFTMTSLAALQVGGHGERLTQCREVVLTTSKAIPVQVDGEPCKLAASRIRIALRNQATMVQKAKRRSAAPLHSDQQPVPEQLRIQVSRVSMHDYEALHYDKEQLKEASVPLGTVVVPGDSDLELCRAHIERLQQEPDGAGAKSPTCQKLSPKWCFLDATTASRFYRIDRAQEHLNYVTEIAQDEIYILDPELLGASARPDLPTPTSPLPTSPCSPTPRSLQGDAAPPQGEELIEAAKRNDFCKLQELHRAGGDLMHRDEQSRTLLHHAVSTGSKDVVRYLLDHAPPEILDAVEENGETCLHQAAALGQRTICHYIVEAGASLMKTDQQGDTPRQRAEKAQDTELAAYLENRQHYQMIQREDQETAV
Method: as §1
Purification of both enzymes was performed as previously described by Takahashi et al., PeerJ, 2018 (Takahashi, D.; Sakane, F. Expression and purification of human diacylglycerol kinase alpha from baculovirus-infected insect cells for structural studies. PeerJ 2018, 6, No. e5449).
as §2

primary human T-cells = assay: T-cell proliferation assay (CellTiter-Glo); format: cell-based; settings: Homo sapiens, T-cell, 120 h, CD3 condition; for Emax: 5 days, 20 μM reference compound A1 = 100%, read-out: Emax proliferation (% activation); for EC50: proliferation after 5 days, CellTiter-Glo, read-out: Tcell Proliferation CD3 EC50
Method: Expanded primary human T-cells are thawed and cultured in RPMI 1640 (Gibco, #61870-010)+5% human serum (HS, Sigma, #H3667)+1 mM Sodium Pyruvate (Gibco, #11360-039)+50 μM 2-mercaptoethanol (Gibco, #31350-010) and 1× Pen-Strep (Life Technologies, #15140122) medium at density of 2 Mio/ml for 3 hours in 5% CO2, 37° C. and 95% humidity. For coating of plates, PBS++ only or PBS++ with CD3 antibody (concentration depending on donor and determined by CD3 titrations) is added 100 μl/well to Poly-D Lysine coated 96-well plates. Plates are sealed and incubated at room temperature for 3 hours on a table-top rocking platform. After incubation, plates are washed once with PBS−− and filled with 40 μl/well culture medium only. Compounds are then added (see next section) to medium only plates. After 3 hours of culturing the T-cells, cells are filtered through a cell strainer (Miltenyi Biotech, #130-041-407), counted again and concentration is adjusted to 1.25 Mio/ml.
Cells are then seeded 80 μl/well to the 40 µl/well including dispensed compounds according to plate layout. By adding cells, compounds are further diluted 1:3, and resulting in 100k cells/120 µl/well. After 48 hours 40 μl of supernatant is collected carefully from the top while not disturbing the cells. Cells are assessed for proliferation 5 days later by measuring […] using CellTiterGlo (Promega).
Compounds were added in a 5 or 6 pt dose response with the Tecan D300e Digital Dispenser, all conditions 3 times more concentrated than the end-concentration, since cells are added afterwards (80p1 cells to 40p1 prepared medium with treatment). The DR was starting at 20 μM or 10 μM final top concentration and a dilution factor of 3.333. The positive control was the reference compound A1 that was added in a dose response as well, additionally to 3 wells of only 20 μM representing the positive stimulator control. All wells were normalized with DMSO to a final concentration of 0.6% (0.2% end-concentration).
After 5 days, for detection of ATP which is directly proportional to the number of cells present per well, the CellTiter-Glo® 2.0 Reagent is used. After visual control for toxicity or precipitations of the tested compounds, the plates are equilibrated to room temperature for 45 minutes. CellTiter-Glo® 2.0 Reagent is equilibrated to room temperature as well. After equilibration, an equal amount of CellTiter-Glo reagent is added to the cells (80 µl/well) with an electronic multichannel pipette. Plates are placed on a rocking platform for 15 minutes at room temperature. After incubation, the bottom of the plates is sealed with backing tape. Luminescence is measured with PHERAstar FSX (interval time 0.5 sec, gain 3000, focal height 15 mm) and exported as CSV file for analysis in Genedata screener.
Calculations and Data Reporting CD3 and PBS plates were analysed separately in Genedata Screener using Roche Normalization PCT_POS_CTRL with DMSO set as Neutral Control and 20 μM of the reference compound A1 set as Stimulator Control/100%.
For CD3 conditions EC50 and Emax of the fitted sigmoidal curve were reported. If no curve could be fitted, the EC50 was reported as blank field and the Emax was based on individual data points. […] Compounds which activate unstimulated cells (see IL2 measurements) or compounds which negatively affected viability were flagged.

Chain of DGKalpha (P23743 whole entry): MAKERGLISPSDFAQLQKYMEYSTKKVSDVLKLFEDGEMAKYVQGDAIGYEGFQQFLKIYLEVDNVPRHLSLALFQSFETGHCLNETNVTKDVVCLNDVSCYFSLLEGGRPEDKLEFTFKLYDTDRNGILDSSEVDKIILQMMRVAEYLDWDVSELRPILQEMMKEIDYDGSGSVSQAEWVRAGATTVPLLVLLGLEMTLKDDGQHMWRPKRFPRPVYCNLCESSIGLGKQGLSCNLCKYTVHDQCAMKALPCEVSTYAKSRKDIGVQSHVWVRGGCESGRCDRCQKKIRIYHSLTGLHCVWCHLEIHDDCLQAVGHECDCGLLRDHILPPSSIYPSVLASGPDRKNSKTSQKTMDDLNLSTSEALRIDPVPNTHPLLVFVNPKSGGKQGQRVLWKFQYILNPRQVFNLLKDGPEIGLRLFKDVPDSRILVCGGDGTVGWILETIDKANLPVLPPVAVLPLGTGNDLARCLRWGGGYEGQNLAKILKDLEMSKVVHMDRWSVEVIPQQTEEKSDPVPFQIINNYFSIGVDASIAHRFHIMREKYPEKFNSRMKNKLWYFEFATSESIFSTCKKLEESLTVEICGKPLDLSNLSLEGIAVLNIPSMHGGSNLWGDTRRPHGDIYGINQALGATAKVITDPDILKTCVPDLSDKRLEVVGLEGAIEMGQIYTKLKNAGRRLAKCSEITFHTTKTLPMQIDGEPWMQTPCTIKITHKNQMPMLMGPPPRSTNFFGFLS

SMILES	IC50 (DGKalpha) [nM]	IC50 (DGKzeta) [nM]	Emax (primary human T-cells) [%]	EC50 (primary human T-cells) [nM]
CC(C)(c1nnc(-c2ccc3c(c2)N(Cc2ccc(-c4ccc(F)cn4)cc2)C(=O)[C@@H](N)CS3(=O)=O)o1)S(C)(=O)=O [Example 9, (3R)-3-amino-5-[[4-(5-fluoro-2-pyridyl)phenyl]methyl]-7-[5-(1-methyl-1-methylsulfonyl-ethyl)-1,3,4-oxadiazol-2-yl]-1,1-dioxo-2,3-dihydro-1λ6,5-benzothiazepin-4-one]	944	1320	82	2700
CC(C)(c1nnc(-c2cc3c(cc2F)S(=O)(=O)C[C@H](N)C(=O)N3Cc2ccc(OCC(F)(F)F)cc2)o1)S(C)(=O)=O [Example 24, (3R)-3-amino-8-fluoro-7-[5-(1-methyl-1-methylsulfonyl-ethyl)-1,3,4-oxadiazol-2-yl]-1,1-dioxo-5-[[4-(2,2,2-trifluoroethoxy)phenyl]methyl]-2,3-dihydro-1λ6,5-benzothiazepin-4-one]	431	503	104	475
CC(C)(c1nc(-c2cc3c(cc2F)S(=O)(=O)C[C@H](N)C(=O)N3Cc2ccc(OC(F)(F)F)cc2)no1)S(C)(=O)=O [Example 44, (3R)-3-amino-8-fluoro-7-[5-(1-methyl-1-methylsulfonyl-ethyl)-1,2,4-oxadiazol-3-yl]-1,1-dioxo-5-[[4-(trifluoromethoxy)phenyl]methyl]-2,3-dihydro-1λ6,5-benzothiazepin-4-one]	683	317	251	208
COc1ccc(-c2ccc(CN3C(=O)[C@@H](N)CS(=O)(=O)c4ccc(-c5nnc(C(C)(C)S(C)(=O)=O)o5)cc43)cc2)cc1 [Example 21, (3R)-3-amino-5-[[4-(4-methoxyphenyl)phenyl]methyl]-7-[5-(1-methyl-1-methylsulfonyl-ethyl)-1,3,4-oxadiazol-2-yl]-1,1-dioxo-2,3-dihydro-1λ6,5-benzothiazepin-4-one]	1270	1080	115	1130
CC(C)(c1nnc(-c2ccc3c(c2)N(Cc2ccc(-c4ccc(C(F)(F)F)cc4)cc2)C(=O)[C@@H](N)CS3(=O)=O)o1)S(C)(=O)=O [Example 56, (3R)-3-amino-7-[5-(1-methyl-1-methylsulfonyl-ethyl)-1,3,4-oxadiazol-2-yl]-1,1-dioxo-5-[[4-[4-(trifluoromethyl)phenyl]phenyl]methyl]-2,3-dihydro-1λ6,5-benzothiazepin-4-one]	10100	8880	137	636
CC(C)(c1nnc(-c2ccc3c(c2)N(Cc2ccc(OCc4ccc(F)cc4)cc2)C(=O)[C@@H](N)CS3(=O)=O)o1)S(C)(=O)=O [Example 12, (3R)-3-amino-5-[[4-[(4-fluorophenyl)methoxy]phenyl]methyl]-7-[5-(1-methyl-1-methylsulfonyl-ethyl)-1,3,4-oxadiazol-2-yl]-1,1-dioxo-2,3-dihydro-1λ6,5-benzothiazepin-4-one]	669	802	151	590
CC(C)(c1nnc(-c2ccc3c(c2)N(Cc2ccc(OC(F)(F)C(F)F)cc2)C(=O)[C@@H](N)CS3(=O)=O)o1)S(C)(=O)=O [Example 3, (3R)-3-amino-7-[5-(1-methyl-1-methylsulfonyl-ethyl)-1,3,4-oxadiazol-2-yl]-1,1-dioxo-5-[[4-(1,1,2,2-tetrafluoroethoxy)phenyl]methyl]-2,3-dihydro-126,5-benzothiazepin-4-one]	1730	978	66	5070
CC(C)(c1nnc(-c2ccc3c(c2)N(Cc2ccc(Oc4ccccc4)cc2)C(=O)[C@@H](N)CS3(=O)=O)o1)S(=O)(=O)C1CC1 [Example 61, (3R)-3-amino-7-[5-(1-cyclopropylsulfonyl-1-methyl-ethyl)-1,3,4-oxadiazol-2-yl]-1,1-dioxo-5-[(4-phenoxyphenyl)methyl]-2,3-dihydro-1λ6,5-benzothiazepin-4-one]	4770	768	58	4560
CS(=O)(=O)C1(c2nnc(-c3cc4c(cc3F)S(=O)(=O)C[C@H](N)C(=O)N4Cc3ccc(Cl)cc3)o2)CC1 [Example 1, (3R)-3-amino-5-[(4-chlorophenyl)methyl]-8-fluoro-7-[5-(1-methylsulfonylcyclopropyl)-1,3,4-oxadiazol-2-yl]-1,1-dioxo-2,3-dihydro-1λ6,5-benzothiazepin-4-one]	2340	989	99	2290
COc1ccc(-c2ccc(CN3C(=O)[C@@H](N)CS(=O)(=O)c4ccc(-c5nnc(C(C)(C)S(C)(=O)=O)o5)cc43)cc2)c(C)c1 [Example 49, (3R)-3-amino-5-[[4-(4-methoxy-2-methyl-phenyl)phenyl]methyl]-7-[5-(1-methyl-1-methylsulfonyl-ethyl)-1,3,4-oxadiazol-2-yl]-1,1-dioxo-2,3-dihydro-1λ6,5-benzothiazepin-4-one]	11100	1460	111	3130
CC(C)(c1nnc(-c2cc3c(cc2F)S(=O)(=O)C[C@H](N)C(=O)N3Cc2ccc(Cl)cc2)o1)S(C)(=O)=O [Example 2, (3R)-3-amino-5-[(4-chlorophenyl)methyl]-8-fluoro-7-[5-(1-methyl-1-methylsulfonyl-ethyl)-1,3,4-oxadiazol-2-yl]-1,1-dioxo-2,3-dihydro-1λ6,5-benzothiazepin-4-one]	1090	1380	123	399
